In patent US10730923B2 (Indiana University Research and Technology Corporation, priority 2011, dated 2020):
*1 amine or outer side, *2 acyl side, *3 side chain or, on linkers, in order; H or OH if unused. Where a SMILES comes first, the peptide text is derived from it. Where no end group is shown, it is not given here. Side-chain parts run from the residue outwards. [ ]: non-standard residue; d: D form. The star is where a group is joined. γGlu = O=C(O)[C@H](CCC(=O)[*:2])N[*:1]; Palmitoyl = CCCCCCCCCCCCCCCC(=O)*; Aib = CC(C)(N)C(=O)O

Experiments:
Format in all cases: in vivo
[1] = obese rhesus monkeys, daily dosing for 21 days: body weight and food intake
Procedure: The in vivo effects of a peptide of the invention were confirmed in obese rhesus monkeys by administering daily for 21 days a vehicle control, a commercially available product (Liraglutide), a peptide of SEQ ID NO: 20, or a peptide of SEQ ID NO: 17. […] Body weight and food intake were measured.

[2] = diet-induced obese (DIO) mice, daily dosing for nine days: body weight and ambient glucose
Procedure: Mice were administered a vehicle control or a dose of a peptide daily for nine days. The peptides tested in this study included a peptide of SEQ ID NO: 12, a peptide of SEQ ID NO: 17, a peptide of SEQ ID NO: 18, and a peptide of SEQ ID NO: 19. Doses of each peptide were varied—each of the peptides of SEQ ID NO: 12, 17, and 19 was administered at a dose of either 3 nmol/kg or 9 nmol/kg, while the peptide of SEQ ID NO: 18 was administered at a dose of 1 nmol/kg, 3 nmol/kg, or 9 nmol/kg. Data are expressed as mean±SEM.
In addition to cumulative body weight change, ambient glucose levels of the DIO mice were measured.

[3] = diabetic rhesus monkeys, 10 days treatment: body weight, fasting blood glucose, Meal Tolerance Test; conditions: 1 μg/kg s.c. for 10 days
Procedure: The in vivo effects of a peptide of the invention were tested in diabetic rhesus monkeys (n=7) that were aged 16-26 years and having an average body weight of […]. Diabetic rhesus monkeys (n=7) that were aged 16-26 years with an average body weight of […] were administered a vehicle control, Liraglutide at a dose of 10 μg/kg s.c. or a peptide of SEQ ID NO: 17 at a dose of 1 μg/kg s.c. for 10 days. At the end of each treatment, fasting blood glucose (FBG) was measured first followed by a Meal Tolerance Test (MTT) to assess glucose tolerance. […] Data are expressed in FIG. 4 as mean±SEM. *P<0.05 versus vehicle.

Q: What does the source list for CCCCCCCCCCCCCCCC(=O)N[C@@H](CCC(=O)N[C@@H](CCC(=O)NCCCC[C@H](NC(=O)[C@H](CC(=O)O)NC(=O)[C@H](CO)NC(=O)[C@@H](NC(=O)[C@H](Cc1ccccc1)NC(=O)[C@@H](NC(=O)CNC(=O)[C@H](CCC(N)=O)NC(=O)C(C)(C)NC(=O)[C@@H](N)Cc1c[nH]cn1)[C@@H](C)O)[C@@H](C)O)C(=O)N[C@@H](CO)C(=O)N[C@@H](CCCCN)C(=O)N[C@@H](Cc1ccc(O)cc1)C(=O)N[C@@H](CC(C)C)C(=O)N[C@@H](CC(=O)O)C(=O)NC(C)(C)C(=O)N[C@@H](CCCNC(=N)N)C(=O)N[C@@H](C)C(=O)N[C@@H](C)C(=O)N[C@@H](CCC(N)=O)C(=O)N[C@@H](CC(=O)O)C(=O)N[C@@H](Cc1ccccc1)C(=O)N[C@H](C(=O)N[C@@H](CCC(N)=O)C(=O)N[C@@H](Cc1c[nH]c2ccccc12)C(=O)N[C@@H](CC(C)C)C(=O)N[C@@H](CCSC)C(=O)N[C@@H](CC(N)=O)C(=O)N[C@H](C(=O)N[C@@H](CCCCN)C(=O)N[C@@H](CCC(N)=O)C(=O)O)[C@@H](C)O)C(C)C)C(=O)O)C(=O)O [SEQ ID NO: 17] (H-H[Aib]QGTFTSDK([γGlu-γGlu-Palmitoyl])SKYLD[Aib]RAAQDFVQWLMNTKQ-OH; N-terminus assumed)?
A: body weight following a one week wash-out ([1]; Day 28): regained much of the weight that was lost; food intake, % change vs. baseline ([1]; daily s.c. for 21 days, Liraglutide 20 μg/kg, SEQ ID NO: 17 3 μg/kg): −25.7%±3.2; reduction in glucose levels compared to vehicle control mice ([2]; 3 nmol/kg, Day 7): ~28%; decrease in glucose levels compared to vehicle control mice ([2]; 3 nmol/kg, Day 9): ~19%; decrease in glucose levels compared to vehicle control mice ([2]; 9 nmol/kg, Day 4): ~48%; decrease in glucose levels compared to vehicle control mice ([2]; 9 nmol/kg, Day 7): ~48%; decrease in glucose levels compared to vehicle control mice ([2]; 9 nmol/kg, Day 9): ~45%; glucose tolerance during Meal Tolerance Test (MTT) compared to vehicle [3]: improved glucose tolerance

Q: With “SEQ ID NO: 18: peptide of SEQ ID NO: 18 of the sequence listing, tested in DIO mice; sequence not printed in the text (HXQGTFTSDKSKYLDERAAQDFVQWLMDT; (2)..(2) Xaa is AIB; (10)..(10) Acylated with a C16 fatty acyl group via gamma-Glu-gamma-Glu spacer; (29)..(29) C-terminal amidation)” as the compound, how does the “decrease in ambient glucose vs. vehicle” value ([2]; 3 nmol/kg or 9 nmol/kg dose, by Day 4) read?
A: −29%

Q: Which results are given for “SEQ ID NO: 19: peptide of SEQ ID NO: 19 of the sequence listing, tested in DIO mice; sequence not printed in the text (H[dS]QGTFTSDK([γGlu-Palmitoyl])SKYLDERAAQDFVQWLLDT-NH2; N-terminus assumed; SMILES CCCCCCCCCCCCCCCC(=O)N[C@@H](CCC(=O)NCCCC[C@H](NC(=O)[C@H](CC(=O)O)NC(=O)[C@H](CO)NC(=O)[C@@H](NC(=O)[C@H](Cc1ccccc1)NC(=O)[C@@H](NC(=O)CNC(=O)[C@H](CCC(N)=O)NC(=O)[C@@H](CO)NC(=O)[C@@H](N)Cc1c[nH]cn1)[C@@H](C)O)[C@@H](C)O)C(=O)N[C@@H](CO)C(=O)N[C@@H](CCCCN)C(=O)N[C@@H](Cc1ccc(O)cc1)C(=O)N[C@@H](CC(C)C)C(=O)N[C@@H](CC(=O)O)C(=O)N[C@@H](CCC(=O)O)C(=O)N[C@@H](CCCNC(=N)N)C(=O)N[C@@H](C)C(=O)N[C@@H](C)C(=O)N[C@@H](CCC(N)=O)C(=O)N[C@@H](CC(=O)O)C(=O)N[C@@H](Cc1ccccc1)C(=O)N[C@H](C(=O)N[C@@H](CCC(N)=O)C(=O)N[C@@H](Cc1c[nH]c2ccccc12)C(=O)N[C@@H](CC(C)C)C(=O)N[C@@H](CC(C)C)C(=O)N[C@@H](CC(=O)O)C(=O)N[C@H](C(N)=O)[C@@H](C)O)C(C)C)C(=O)O)”?
A: decrease in glucose levels compared to vehicle control mice ([2]; 9 nmol/kg, Day 4): ~40%; decrease in glucose levels compared to vehicle control mice ([2]; 9 nmol/kg, Day 7): ~39%; decrease in glucose levels compared to vehicle control mice ([2]; 9 nmol/kg, Day 9): ~26%
